Laboratory results from patent publication US10544143B2, “4-azaindole compounds” (BRISTOL-MYERS SQUIBB COMPANY, priority 2017, dated 2020).

What was measured:
[1] = biological target: human TLR9 (Homo sapiens (Human), UniProt Q9NR96); test: TLR9 inhibition reporter assay (HEK-Blue SEAP); conditions: read-out: TLR9 IC50; HEK-Blue cells overexpressing human TLR9, ODN2006 5 nM stimulation, SEAP reporter;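 further: SEAP driven by an IFN-β minimal promoter with NF-κB and AP-1 sites, read after 22 h, compounds dosed 0.05 nM–50 µM, inhibition scaled between agonist plus DMSO and reference-inhibitor wells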
[2] = biological target: human TLR7 (Homo sapiens (Human), UniProt Q9NYK1); test: TLR7 inhibition reporter assay (HEK-Blue SEAP); format: cell-based; conditions: HEK-Blue cells overexpressing human TLR7, gardiquimod 7.5 μM stimulation, SEAP reporter
Experimental: HEK-Blue™-cells (Invivogen) overexpressing human TLR7, TLR8 or TLR9 receptors were used for screening inhibitors of these receptors using an inducible SEAP (secreted embryonic alkaline phosphatase) reporter gene under the control of the IFN-β minimal promoter fused to five NF-κB and AP-1-binding sites. Briefly, cells are seeded into Greiner 384 well plates (15000 cells per well for TLR7, 20,000 for TLR8 and 25,000 for TLR9) and then treated with test compounds in DMSO to yield a final dose response concentration range of 0.05 nM-50 μM. After a 30 minute compound pre-treatment at room temperature, the cells are then stimulated with a TLR7 ligand (gardiquimod at a final concentration of 7.5 μM), TLR8 ligand (R848 at a final concentration of 15.9 μM) or TLR9 ligand (ODN2006 at a final concentration of 5 nM) to activate NF-κB and AP-1 which induce the production of SEAP. After a 22 hour incubation at 37° C., 5% CO2, SEAP levels are determined with the addition of HEK-Blue™ Detection reagent (Invivogen), a cell culture medium that allows for detection of SEAP, according to manufacturer's specifications.

[3] = biological target: human TLR8 (Homo sapiens (Human), UniProt Q9NR97); test: TLR8 inhibition reporter assay (HEK-Blue SEAP); conditions: read-out: TLR8 IC50; HEK-Blue cells overexpressing human TLR8, R848 15.9 μM stimulation, SEAP reporter;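 further: SEAP driven by IFN-β minimal promoter carrying NF-κB and AP-1 sites, compounds dosed 0.05 nM to 50 µM for 22 h, inhibition scaled between agonist-plus-DMSO and reference-inhibitor wells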
human TLR8, sequence (Q9NR97 27-1041): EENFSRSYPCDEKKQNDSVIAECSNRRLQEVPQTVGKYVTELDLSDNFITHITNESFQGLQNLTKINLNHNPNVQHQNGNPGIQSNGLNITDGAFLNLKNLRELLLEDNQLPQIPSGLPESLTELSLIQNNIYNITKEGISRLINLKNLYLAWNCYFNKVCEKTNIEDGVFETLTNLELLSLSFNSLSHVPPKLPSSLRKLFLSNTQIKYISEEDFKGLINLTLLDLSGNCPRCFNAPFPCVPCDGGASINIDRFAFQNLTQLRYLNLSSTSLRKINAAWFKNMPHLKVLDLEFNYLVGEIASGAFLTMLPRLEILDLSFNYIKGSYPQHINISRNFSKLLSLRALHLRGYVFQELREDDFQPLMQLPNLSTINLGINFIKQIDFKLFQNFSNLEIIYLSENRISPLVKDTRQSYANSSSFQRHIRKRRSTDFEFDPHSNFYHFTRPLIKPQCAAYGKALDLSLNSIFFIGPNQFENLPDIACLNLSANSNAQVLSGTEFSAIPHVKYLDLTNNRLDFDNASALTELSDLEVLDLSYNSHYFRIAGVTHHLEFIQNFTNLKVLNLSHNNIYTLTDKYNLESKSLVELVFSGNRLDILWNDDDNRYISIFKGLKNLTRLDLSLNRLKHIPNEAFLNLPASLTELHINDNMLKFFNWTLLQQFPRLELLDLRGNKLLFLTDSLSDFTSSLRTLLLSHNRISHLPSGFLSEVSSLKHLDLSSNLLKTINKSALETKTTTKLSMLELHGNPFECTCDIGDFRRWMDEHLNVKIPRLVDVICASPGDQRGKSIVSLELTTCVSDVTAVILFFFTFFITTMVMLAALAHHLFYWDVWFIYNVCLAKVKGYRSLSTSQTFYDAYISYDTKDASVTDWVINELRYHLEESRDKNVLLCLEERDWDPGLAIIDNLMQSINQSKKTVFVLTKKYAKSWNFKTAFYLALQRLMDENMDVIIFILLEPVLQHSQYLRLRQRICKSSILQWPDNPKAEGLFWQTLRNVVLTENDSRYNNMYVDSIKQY

human TLR9, sequence (Q9NR96 26-1032): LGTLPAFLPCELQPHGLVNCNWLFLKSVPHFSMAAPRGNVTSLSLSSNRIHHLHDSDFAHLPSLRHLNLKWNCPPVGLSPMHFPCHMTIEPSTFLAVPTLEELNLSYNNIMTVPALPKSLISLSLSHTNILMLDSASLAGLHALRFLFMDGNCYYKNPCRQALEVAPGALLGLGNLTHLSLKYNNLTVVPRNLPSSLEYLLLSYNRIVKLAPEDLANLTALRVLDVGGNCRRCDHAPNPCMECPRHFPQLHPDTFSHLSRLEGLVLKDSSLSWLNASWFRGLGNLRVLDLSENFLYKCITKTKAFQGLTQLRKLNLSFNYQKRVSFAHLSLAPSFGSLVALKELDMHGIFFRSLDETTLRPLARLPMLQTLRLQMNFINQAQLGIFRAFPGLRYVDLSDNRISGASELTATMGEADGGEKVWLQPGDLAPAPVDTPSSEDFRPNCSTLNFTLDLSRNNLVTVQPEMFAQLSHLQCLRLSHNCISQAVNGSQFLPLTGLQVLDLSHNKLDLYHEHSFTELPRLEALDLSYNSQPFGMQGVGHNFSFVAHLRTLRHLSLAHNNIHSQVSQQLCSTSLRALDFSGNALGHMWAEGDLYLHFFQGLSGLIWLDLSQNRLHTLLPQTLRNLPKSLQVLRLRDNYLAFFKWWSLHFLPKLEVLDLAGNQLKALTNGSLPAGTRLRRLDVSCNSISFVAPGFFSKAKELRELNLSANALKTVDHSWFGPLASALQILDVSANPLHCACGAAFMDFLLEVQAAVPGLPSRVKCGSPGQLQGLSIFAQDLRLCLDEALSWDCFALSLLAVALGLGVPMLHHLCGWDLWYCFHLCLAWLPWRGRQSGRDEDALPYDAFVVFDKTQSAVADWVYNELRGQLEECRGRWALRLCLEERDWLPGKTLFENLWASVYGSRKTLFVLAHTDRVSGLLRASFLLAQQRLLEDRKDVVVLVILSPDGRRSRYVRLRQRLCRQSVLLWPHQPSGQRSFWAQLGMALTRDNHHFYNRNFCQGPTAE
human TLR7, sequence (Q9NYK1 27-1049): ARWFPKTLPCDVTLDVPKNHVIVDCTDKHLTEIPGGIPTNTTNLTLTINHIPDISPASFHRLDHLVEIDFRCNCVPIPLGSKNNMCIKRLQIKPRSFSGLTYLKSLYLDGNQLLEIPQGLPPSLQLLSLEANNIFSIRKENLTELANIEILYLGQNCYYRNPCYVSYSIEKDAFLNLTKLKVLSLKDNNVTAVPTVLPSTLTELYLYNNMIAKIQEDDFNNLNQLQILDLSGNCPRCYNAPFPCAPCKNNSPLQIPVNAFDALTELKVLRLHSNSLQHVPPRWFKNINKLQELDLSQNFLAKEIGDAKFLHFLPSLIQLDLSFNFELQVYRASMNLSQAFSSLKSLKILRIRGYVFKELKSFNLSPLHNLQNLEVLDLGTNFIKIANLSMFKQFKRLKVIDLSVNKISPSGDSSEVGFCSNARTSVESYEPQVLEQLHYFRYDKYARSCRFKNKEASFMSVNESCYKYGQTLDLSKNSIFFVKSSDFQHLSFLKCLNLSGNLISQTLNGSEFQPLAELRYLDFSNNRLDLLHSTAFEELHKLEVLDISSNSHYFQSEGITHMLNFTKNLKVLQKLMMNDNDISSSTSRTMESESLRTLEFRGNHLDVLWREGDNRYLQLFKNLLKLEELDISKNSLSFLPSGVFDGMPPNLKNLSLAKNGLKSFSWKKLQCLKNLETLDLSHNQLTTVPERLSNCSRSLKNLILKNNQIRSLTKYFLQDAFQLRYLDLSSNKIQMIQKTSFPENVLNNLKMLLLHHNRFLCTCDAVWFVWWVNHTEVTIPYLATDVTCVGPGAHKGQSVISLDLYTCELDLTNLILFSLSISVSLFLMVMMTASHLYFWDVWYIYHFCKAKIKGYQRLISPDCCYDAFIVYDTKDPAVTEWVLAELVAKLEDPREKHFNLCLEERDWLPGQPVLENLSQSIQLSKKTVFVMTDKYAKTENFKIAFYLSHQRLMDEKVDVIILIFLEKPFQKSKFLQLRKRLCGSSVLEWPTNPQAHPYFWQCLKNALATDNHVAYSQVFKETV

COc1cc(-c2[nH]c3ccc(C4CCC(NC(C)C)CC4)nc3c2C(C)C)cn2ncnc12 (stereo not drawn) [Example 167]
IC50 [1]: 0.156 µM
IC50 [2]: 0.00043 µM
IC50 [3]: 0.0017 µM

COc1cc(-c2[nH]c3ccc(C4CCC(N(C)C(C)C)CC4)nc3c2C(C)C)cn2ncnc12 (stereo not drawn) [Example 168]
IC50 [1]: 0.658 µM
IC50 [2]: 0.00089 µM
IC50 [3]: 0.0034 µM

COc1cc(-c2[nH]c3ccc(C4CCC(N(C)CCO)CC4)nc3c2C(C)C)cn2ncnc12 (stereo not drawn) [Example 169]
IC50 [1]: 1.22 µM
IC50 [2]: 0.0031 µM
IC50 [3]: 0.021 µM

COc1cc(-c2[nH]c3ccc(C4CCC(N(C)C(C)C)CC4)nc3c2C(C)C)cn2ncnc12 (stereo not drawn) [Example 170]
IC50 [1]: 1.41 µM
IC50 [2]: 0.002 µM
IC50 [3]: 0.017 µM

COc1cc(-c2[nH]c3ccc(C4CCC(N(C)C5CC5)CC4)nc3c2C(C)C)cn2ncnc12 (stereo not drawn) [Example 171]
IC50 [1]: 0.56 µM
IC50 [2]: 0.00045 µM
IC50 [3]: 0.0018 µM

COc1cc(-c2[nH]c3ccc(C4CCC(N(C)C5CC5)CC4)nc3c2C(C)C)cn2ncnc12 (stereo not drawn) [Example 172]
IC50 [1]: 1.79 µM
IC50 [2]: 0.0019 µM
IC50 [3]: 0.013 µM

COc1cc(-c2[nH]c3ccc(C4CCC(N5CCC[C@H]5CO)CC4)nc3c2C(C)C)cn2ncnc12 (stereo partly drawn) [Example 173]
IC50 [1]: 0.578 µM
IC50 [2]: 0.002 µM
IC50 [3]: 0.01 µM

COc1cc(-c2[nH]c3ccc(C4CCC(N5CCCC5)CC4)nc3c2C(C)C)cn2ncnc12 (stereo not drawn) [Example 174]
IC50 [1]: 1.47 µM
IC50 [2]: 0.0043 µM
IC50 [3]: 0.037 µM

COc1cc(-c2[nH]c3ccc(C4CCC(N(C)CCC#N)CC4)nc3c2C(C)C)cn2ncnc12 (stereo not drawn) [Example 175]
IC50 [1]: 0.926 µM
IC50 [2]: 0.00035 µM
IC50 [3]: 0.002 µM

COc1cc(-c2[nH]c3ccc(C4CCC(=O)CC4)nc3c2C(C)C)cn2ncnc12 [Example 176]
IC50 [1]: 16 µM
IC50 [2]: 0.0052 µM
IC50 [3]: 0.084 µM

COc1cc(-c2[nH]c3ccc(C4CCC(N(C)C)CC4)nc3c2C(C)C)cn2ncnc12 (stereo not drawn) [Example 177]
IC50 [1]: 0.148 µM
IC50 [2]: 0.00028 µM
IC50 [3]: 0.0025 µM

COc1cc(-c2[nH]c3ccc(C4CCC(NC5COC5)CC4)nc3c2C(C)C)cn2ncnc12 (stereo not drawn) [Example 178]
IC50 [1]: 0.895 µM
IC50 [2]: 0.00048 µM
IC50 [3]: 0.0018 µM

COc1cc(-c2[nH]c3ccc(C4CCC(N(C)C)CC4)nc3c2C(C)C)cn2ncnc12 (stereo not drawn) [Example 179]
IC50 [1]: 1.74 µM
IC50 [2]: 0.00092 µM
IC50 [3]: 0.007 µM

COc1cc(-c2[nH]c3ccc(C4CCC(NC5COC5)CC4)nc3c2C(C)C)cn2ncnc12 (stereo not drawn) [Example 180]
IC50 [1]: 1.87 µM
IC50 [2]: 0.0028 µM
IC50 [3]: 0.011 µM

COc1cc(-c2[nH]c3ccc(C4CCC(NCC(=O)N(C)C)CC4)nc3c2C(C)C)cn2ncnc12 (stereo not drawn) [Example 181]
IC50 [1]: 0.561 µM
IC50 [2]: 0.0017 µM
IC50 [3]: 0.013 µM

CC(C)c1c(-c2cn(C)c3ncccc23)[nH]c2ccc(C3CCC(NCC(=O)N(C)C)CC3)nc12 (stereo not drawn) [Example 182]
IC50 [1]: 0.301 µM
IC50 [2]: 0.00048 µM
IC50 [3]: 0.0011 µM

CC(C)c1c(-c2cn(C)c3ncccc23)[nH]c2ccc(C3CCC(NCC(=O)N(C)C)CC3)nc12 (stereo not drawn) [Example 183]
IC50 [1]: 1.03 µM
IC50 [2]: 0.0056 µM
IC50 [3]: 0.015 µM

CC(C)c1c(-c2cn(C)c3ncccc23)[nH]c2ccc(C3CCC(NC4COC4)CC3)nc12 (stereo not drawn) [Example 184]
IC50 [1]: 2.05 µM
IC50 [2]: 0.0088 µM
IC50 [3]: 0.018 µM

CC(C)c1c(-c2cn(C)c3ncccc23)[nH]c2ccc(C3CCC(NC4COC4)CC3)nc12 (stereo not drawn) [Example 185]
IC50 [1]: 10.3 µM
IC50 [2]: 0.038 µM
IC50 [3]: 0.11 µM

COc1cc(-c2[nH]c3ccc(C4CCC(NC5COC5)CC4)nc3c2C(C)C)cn2ncnc12 (stereo not drawn) [Example 186]
IC50 [1]: 1.01 µM
IC50 [2]: 0.0022 µM
IC50 [3]: 0.0093 µM

COc1cc(-c2[nH]c3ccc(C4CCC(N(C)C)CC4)nc3c2C(C)C)cn2ncnc12 (stereo not drawn) [Example 187]
IC50 [1]: 4.22 µM
IC50 [2]: 0.0021 µM
IC50 [3]: 0.02 µM

CNC1CCC(c2ccc3[nH]c(-c4cc(OC)c5ncnn5c4)c(C(C)C)c3n2)CC1 (stereo not drawn) [Example 188]
IC50 [1]: 0.158 µM
IC50 [2]: 0.00029 µM
IC50 [3]: 0.0025 µM

CNC1CCC(c2ccc3[nH]c(-c4cc(OC)c5ncnn5c4)c(C(C)C)c3n2)CC1 (stereo not drawn) [Example 189]
IC50 [1]: 0.313 µM
IC50 [2]: 0.0016 µM
IC50 [3]: 0.0067 µM

COc1cc(-c2[nH]c3ccc(C4CCC(NCc5cnc(C)cn5)CC4)nc3c2C(C)C)cn2ncnc12 (stereo not drawn) [Example 190]
IC50 [1]: 0.353 µM
IC50 [2]: 0.0008 µM
IC50 [3]: 0.0028 µM

COc1cc(-c2[nH]c3ccc(C4CCC(N(C)CCO)CC4)nc3c2C(C)C)cn2ncnc12 (stereo not drawn) [Example 191]
IC50 [1]: 0.202 µM
IC50 [2]: 0.0009 µM
IC50 [3]: 0.0027 µM

COc1cc(-c2[nH]c3ccc(C4CCC(N5CCCC5)CC4)nc3c2C(C)C)cn2ncnc12 (stereo not drawn) [Example 192]
IC50 [1]: 1.11 µM
IC50 [2]: 0.0031 µM
IC50 [3]: 0.019 µM
